Values quoted from earlier work, collected in patent US20130202637A1, “Dietary Supplements Including Ellagitannins and Ellagic Acid” (priority 2012, published 2013).

In the case of `O=c1oc2c(O)c(O)cc3c(=O)oc4c(O)c(O)cc1c4c23` [ellagic acid], the G-Arrest began (cervical cancer) is given as 72 h and the G-Arrest began (breast cancer) is given as 72 h.
